Source: ChEMBL document CHEMBL6087404, “Naphthoindole-2-carboxamides as a lipophilic chemotype of hetarene-anthraquinones potent against P-gp resistant tumor cells” (Eur J Med Chem, 2025)
The source made the active and inactive calls. The calls are words filed in the database; no cut-off is given here.

Tests used:
K562/4 [1] = assay: Effect on cell cycle distribution in human K562/4 cells assessed as cells with fragmented DNA at sub-G1 phase at 0.75 uM incubated for 24 hrs by PI staining based flow cytometry (reference value: 4 %); type: functional
K562/4 [2] = assay: Induction of apoptosis in human K562/4 cells assessed as viable cells at 1 uM incubated for 24 hrs by Annexin V-FITC/PI staining based flow cytometry (reference value: 10.8 %); type: functional; conditions: read-out: Activity
[3] = Drug uptake in human K562/4 cells assessed as fold increase at 2 uM incubated for 3 to 120 hrs by flow cytometry relative to LCTA-2640; type: ADME, cell-based; conditions: k562/4, 2 µM, time 3-120 hrs
K562/4 [4] = assay: Effect on cell cycle distribution in human K562/4 cells assessed as cells with fragmented DNA at sub-G1 phase at 0.75 uM incubated for 72 hrs by PI staining based flow cytometry (reference value: 4 %); type: functional
K562/4 [5] = assay: Effect on cell cycle distribution in human K562/4 cells assessed as cells with fragmented DNA at sub-G1 phase at 1 uM incubated for 48 hrs by PI staining based flow cytometry (reference value: 4 %); type: functional
[6] = Drug uptake in P-gp+ human […] cells at 3 uM incubated for 10 mins by confocal microscopy; type: ADME, cell-based; conditions: k562/4, 10 min
[7] = Drug uptake in verapamil-treated human K562i/S9 cells at 2 uM incubated for 3 to 120 hrs by flow cytometry relative to wild-type culture; type: ADME, cell-based; conditions: k562i/s9, 2 µM, time 3-120 hrs
[8] = Drug uptake in P-gp+ human K562/4 cells at 2 uM incubated for 3 to 120 hrs by flow cytometry; type: ADME, cell-based; conditions: k562/4, 2 µM, time 3-120 hrs
[9] = Drug uptake in mitochondria of human HCT-116 cells at 3 uM incubated for 1 hr by MitoTracker Red FM dye based confocal microscopy; type: ADME; conditions: hct-116, 1 h
A549 = assay: Antiproliferative activity against human A549 cells incubated for 72 hrs by MTT assay; type: functional, cell-based; conditions: A549, 72 h
[10] = Drug uptake in verapamil-treated human K562/4 cells at 2 uM incubated for 3 to 120 hrs by flow cytometry relative to wild-type culture; type: ADME, cell-based; conditions: k562/4, 2 µM, time 3-120 hrs
K562 [11] = assay: Induction of apoptosis in human K562 cells assessed as late apoptotic cells at 1 uM incubated for 24 hrs by Annexin V-FITC/PI staining based flow cytometry (reference value: 2.5 %); type: functional
K562/4 [12] = assay: Induction of apoptosis in human K562/4 cells assessed as early apoptotic cells at 1 uM incubated for 24 hrs by Annexin V-FITC/PI staining based flow cytometry (reference value: 1 %); type: functional
K562/4 [13] = assay: Induction of apoptosis in human K562/4 cells assessed as viable cells at 1 uM incubated for 48 hrs by Annexin V-FITC/PI staining based flow cytometry (reference value: 86 %); type: functional; conditions: read-out: Activity
K562 [14] = assay: Effect on cell cycle distribution in human K562 cells assessed as cells with fragmented DNA at sub-G1 phase at 0.75 uM incubated for 24 hrs by PI staining based flow cytometry (reference value: 3 %); type: functional
K562/4 [15] = assay: Induction of apoptosis in human K562/4 cells assessed as late apoptotic cells at 1 uM incubated for 48 hrs by Annexin V-FITC/PI staining based flow cytometry (reference value: 2.5 %); type: functional
K562 [16] = assay: Effect on cell cycle distribution in human K562 cells assessed as cells with fragmented DNA at sub-G1 phase at 0.75 uM incubated for 48 hrs by PI staining based flow cytometry (reference value: 3 %); type: functional
K562/4 [17] = assay: Antiproliferative activity against human K562/4 cells incubated for 72 hrs by MTT assay; type: functional, cell-based; conditions: K562/4, 72 h
K562 [18] = assay: Induction of apoptosis in human K562 cells assessed as necrotic cells at 1 uM incubated for 24 hrs by Annexin V-FITC/PI staining based flow cytometry (reference value: 10.8 %); type: functional
[19] = Drug uptake in human K562i/S9 cells assessed as fold increase at 2 uM incubated for 3 to 120 hrs by flow cytometry relative to LCTA-2640; type: ADME, cell-based; conditions: k562i/s9, 2 µM, time 3-120 hrs
K562 [20] = assay: Induction of apoptosis in human K562 cells assessed as early apoptotic cells at 1 uM incubated for 24 hrs by Annexin V-FITC/PI staining based flow cytometry (reference value: 0.8 %); type: functional
[21] = Antiproliferative activity against hFB-hTERT6 cells incubated for 72 hrs by MTT assay; type: toxicity, cell-based; conditions: human
K562 [22] = assay: Induction of apoptosis in human K562 cells assessed as viable cells at 1 uM incubated for 24 hrs by Annexin V-FITC/PI staining based flow cytometry (reference value: 85.9 %); type: functional; conditions: read-out: Activity
K562/4 [23] = assay: Effect on cell cycle distribution in human K562/4 cells assessed as cells with fragmented DNA at sub-G1 phase at 1 uM incubated for 72 hrs by PI staining based flow cytometry (reference value: 4 %); type: functional
K562 [24] = assay: Induction of apoptosis in human K562 cells assessed as necrotic cells at 1 uM incubated for 48 hrs by Annexin V-FITC/PI staining based flow cytometry (reference value: 10.8 %); type: functional
[25] = biological target: T1, DNA topoisomerase 1 (Homo sapiens) (UniProt P11387); assay: Inhibition of Top1 (unknown origin)-mediated unwinding of supercoiled DNA at 5 uM incubated for 30 mins by electrophoretic analysis
T1 sequence (whole entry): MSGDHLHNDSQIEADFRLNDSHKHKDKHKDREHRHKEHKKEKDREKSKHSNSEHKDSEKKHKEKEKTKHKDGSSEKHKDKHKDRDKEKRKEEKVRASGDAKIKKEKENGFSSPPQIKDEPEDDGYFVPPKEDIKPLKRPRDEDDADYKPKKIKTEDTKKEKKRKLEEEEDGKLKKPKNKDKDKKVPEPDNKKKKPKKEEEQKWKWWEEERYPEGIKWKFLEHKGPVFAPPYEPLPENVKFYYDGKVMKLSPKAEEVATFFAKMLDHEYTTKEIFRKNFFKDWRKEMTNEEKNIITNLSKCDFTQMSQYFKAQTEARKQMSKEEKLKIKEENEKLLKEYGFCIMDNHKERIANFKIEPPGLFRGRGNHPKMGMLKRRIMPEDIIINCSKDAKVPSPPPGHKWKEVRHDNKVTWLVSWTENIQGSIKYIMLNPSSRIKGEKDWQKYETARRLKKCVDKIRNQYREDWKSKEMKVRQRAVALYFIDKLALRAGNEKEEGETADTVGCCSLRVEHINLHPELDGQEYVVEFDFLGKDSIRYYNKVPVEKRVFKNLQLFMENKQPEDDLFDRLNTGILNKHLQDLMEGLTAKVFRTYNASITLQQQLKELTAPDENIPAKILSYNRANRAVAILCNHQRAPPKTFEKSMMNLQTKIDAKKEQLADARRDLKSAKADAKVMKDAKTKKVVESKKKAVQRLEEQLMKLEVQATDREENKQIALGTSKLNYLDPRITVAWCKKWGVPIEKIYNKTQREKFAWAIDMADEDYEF

[26] = Drug uptake in P-gp+ human K562i/S9 cells at 2 uM incubated for 3 to 120 hrs by flow cytometry; type: ADME, cell-based; conditions: k562i/s9, 2 µM, time 3-120 hrs
K562/4 [27] = assay: Induction of apoptosis in human K562/4 cells assessed as late apoptotic cells at 1 uM incubated for 24 hrs by Annexin V-FITC/PI staining based flow cytometry (reference value: 2.5 %); type: functional

fold change (FC) [3]: <= 2
Drug uptake [6]: Active
Drug uptake [7]: 50%
Drug uptake [8]: Active
Drug uptake [9]: Active
IC50 (A549): 7.7 µM
Drug uptake [10]: 80%
IC50 (K562/4 [17]): 1.2 µM
fold change (FC) [19]: <= 2
inhibition [25]: Active
Drug uptake [26]: Active
SMILES: CS(=O)(=O)O.N[C@H]1CCN(C(=O)c2cc3c(O)c4c(c(O)c3[nH]2)C(=O)c2ccccc2C4=O)C1
Activity (K562/4 [1]): 8%
viability at 1 µM (K562/4 [2]): 48.9%
Activity (K562/4 [4]): 5%
Activity (K562/4 [5]): 54%
Activity (K562 [11]): 24.5%
Activity (K562/4 [12]): 0.6%
viability at 1 µM (K562/4 [13]): 3.4%
Activity (K562 [14]): 21%
Activity (K562/4 [15]): 17.5%
Activity (K562 [16]): 26%
Activity (K562 [18]): 46.2%
Activity (K562 [20]): 0.2%
IC50 at 72 h [21]: 4.2 µM
viability at 1 µM (K562 [22]): 29%
Activity (K562/4 [23]): 89%
Activity (K562 [24]): 43.7%
Activity (K562/4 [27]): 20.4%
